Data set [1] in a line: In vivo bioavailability experiment: plasma aliskiren after a single i.v. or oral dose. To be noted: male, Sprague-Dawley, rat, rats, plasma up to 24 h. Here is the method:
For comparison, aliskiren hemifumarate was dosed both i.v. (intravenous) and orally. For all experiment, the compounds were administrated to three individually weighted male Sprague-Dawley rats. For all po dosing, the dose was 25 μmole/kg in a dose volume of 8 ml/kg and the dose vehicle was 50% propylene glycol/50% pH 4.75 buffer (0.1M aqueous buffer of NaOAc/HOAc) by volume ratio. […] For the i.v. dosing of the compounds of invention, a vehicle of 45% PEG400/55% pH 4.75 buffer (0.1M aqueous buffer of NaOAc/HOAc) by volume ratio was used and the dose were 5 μmole/kg in a dose volume of 1.5 ml/kg. Male Sprague-Dawley rats were fasted for about 16-17 h before po dosing and fasting lasted about 2-3 h post-dose. Water was given ad libitum. The blood samples were taken at different time points up to 24 h. For i.v. dosing group, at 5 min, 15 min, 30 min, 1 h, 2 h, 4 h, 6 h, 8 h, 24 h. For oral doing group, at 15 min, 30 min, 1 h, 2 h, 4 h, […], 24 h. The blood samples were collected in heparinized tube and centrifuged at 3500 rpm for 5 min. The plasma samples were stored at about −20° C. for analysis.
After the work-up of the plasma samples, LC-MS/MS was used for the quantitation of the aliskiren and the compounds of the invention. Standard curves were made for aliskiren and the substances for study.

For data set [2] the following is noted: Clinical Pharmacokinetics, 2008, 47, 515-531; cited from earlier work.
A short description of data set [3]: Chemical stability at pH 2.0. The settings on record: pH 2 aqueous buffer, 3 h incubation at 37° C., LCMS. It counts as physicochemical. Here is the method: (§1) The compounds of the invention were studied for their chemical stability:
10 mM DMSO solution of the compound of the formula (I) was prepared. 10 μl of the solution was added to 1 ml of pH 2 aqueous buffer at 37° C. The solution was kept at 37° C. At each time point, a small aliquote was taken and the sample was analyzed by LCMS.

Data set [4] is described as follows: Chemical stability at pH 7.4. The settings on record: pH 7.4 aqueous phosphate buffer, 3 h incubation at 37° C., LCMS. It counts as physicochemical. The procedure: as §1
10 mM DMSO solution of the compound of the formula (I) was prepared. 10 μl of the solution was added to 1 ml of pH 7.4 aqueous phosphate buffer at 37° C. The solution was kept at 37° C. At each time points, a small aliquote was taken and the sample was analyzed by LCMS.

The nature of data set [5]: Stability of the isolated compound (observation in synthesis). It counts as physicochemical. To be noted: after column chromatography, brown oil. Here is the method:
Chloromethyl (4S,5S)-5-((2S)-2-{[(3-amino-2,2-dimethyl-3-oxopropyl)amino]carbonyl}-3-methylbutyl)-4-{(2S)-2-[4-methoxy-3-(3-methoxypropoxy)benzyl]-3-methylbutyl}-1,3-oxazolidine-3-carboxylate (191 mg) and sodium iodide (135 mg) were mixed with dry acetonitrile and heated under stirring at 75° C. for 1 h 20 min. Full conversion according to LC-MS. Reaction mixture was mixed with water and extracted into DCM, washed with brine, dried over MgSO4. 186 mg of crude product was obtained, which was purified by column chromatography on silica gel (EtOAc) to give 72 mg of pure material as brown oil. […] LCMS: 748.3 [M+1]^+, 770.3 [M+Na]^+.

Structures can show the parent of a compound that is named as a salt.

By AUC(0-t) is commonly meant exposure summed from dosing to a finite time, without extrapolation to infinity. A low value points to less exposure. As to `COCCCOc1cc(C[C@@H](C[C@H](N)[C@@H](O)C[C@H](C(=O)NCC(C)(C)C(N)=O)C(C)C)C(C)C)ccc1OC` [Aliskiren hemifumarate], the area under the curve AUC(0-t) in data set [1] (iv, i.v. 5 μmole/kg) is 994 ± 162 ng·h/mL; in data set [1] (po, p.o. 25 μmole/kg) it was 28 ± 20.5 ng·h/mL.
For the compound `COCCCOc1cc(C[C@@H](C[C@H](N)[C@@H](O)C[C@H](C(=O)NCC(C)(C)C(N)=O)C(C)C)C(C)C)ccc1OC` [Aliskiren, (2S,4S,5S,7S)—N-(2-Carbamoyl-2-methylpropyl)-5-amino-4-hydroxy-2,7-diisopropyl-8-[4-methoxy-3-(3-methoxypropoxy)phenyl]-octanamide, reference compound], in data set [2], the oral bioavailability entry is listed as “about 2.6%”. In addition, the “Chemical stability pH 2 (decomposition)” value in data set [3] is on record as “A (Less than 5% decomposition after 3 h incubation at 37° C.)”. The “Chemical stability pH 7.4 (decomposition)” value in data set [4] is “A (Less than 5% decomposition after 3 h incubation at 37° C.)”.
As for `COCCCOc1cc(C[C@@H](C[C@H]2[C@H](C[C@H](C(=O)NCC(C)(C)C(N)=O)C(C)C)OCN2C(=O)OCOC(=O)C(C)(C)C)C(C)C)ccc1OC` [Example 6, (4S,5S)-pivaloyloxymethyl 5-[(S)-2-(3-amino-2,2-dimethyl-3-oxopropylcarbamoyl)-3-methylbutyl]-4-{(S)-2-[4-methoxy-3-(methoxypropoxy)benzyl]-3-methylbutyl}oxazolidine-3-carboxylate], the “Chemical stability pH 2 (decomposition)” value in data set [3] was “A (Less than 5% decomposition after 3 h incubation at 37° C.)”. In addition, the “Chemical stability pH 7.4 (decomposition)” value in data set [4] was “B (Less than 25% decomposition after 3 h incubation at 37° C.)”.
The matching figures for `COCCCOc1cc(C[C@@H](C[C@H]2[C@H](C[C@H](C(=O)NCC(C)(C)C(N)=O)C(C)C)OCN2C(=O)OCOC(=O)OC(C)C)C(C)C)ccc1OC` [Example 12, (4S,5S)-(isopropoxycarbonyloxy)methyl 5-[(S)-2-(3-amino-2,2-dimethyl-3-oxopropylcarbamoyl)-3-methylbutyl]-4-{(S)-2-[4-methoxy-3-(methoxypropoxy)benzyl]-3-methylbutyl}oxazolidine-3-carboxylate]: “A (Less than 5% decomposition after 3 h incubation at 37° C.)” and “B (Less than 25% decomposition after 3 h incubation at 37° C.)”.
On to `COCCCOc1cc(C[C@@H](C[C@H]2[C@H](C[C@H](C(=O)NCC(C)(C)C(N)=O)C(C)C)OCN2C(=O)OCI)C(C)C)ccc1OC` [Example 14, Iodomethyl (4S,5S)-5-((2S)-2-{[(3-amino-2,2-dimethyl-3-oxopropyl)amino]carbonyl}-3-methylbutyl)-4-{(2S)-2-[4-methoxy-3-(3-methoxypropoxy)benzyl]-3-methylbutyl}-1,3-oxazolidine-3-carboxylate], for which the “stability of the compound” value in data set [5] is “not stable and decomposes rather rapidly”.
With `COCCCOc1cc(C[C@@H](C[C@H]2[C@H](C[C@H](C(=O)NCC(C)(C)C(N)=O)C(C)C)OCN2C(=O)OCOC(=O)C(C)(C)CO)C(C)C)ccc1OC` [Example 27, [(3-hydroxy-2,2-dimethylpropanoyl)oxy]methyl (4S,5S)-5-((2S)-2-{[(3-amino-2,2-dimethyl-3-oxopropyl)amino]carbonyl}-3-methylbutyl)-4-{(2S)-2-[4-methoxy-3-(3-methoxypropoxy)benzyl]-3-methylbutyl}-1,3-oxazolidine-3-carboxylate], in data set [3], the “Chemical stability pH 2 (decomposition)” value is given as “A (Less than 5% decomposition after 3 h incubation at 37° C.)”. Moreover, in data set [4], the “Chemical stability pH 7.4 (decomposition)” value is recorded as “A (Less than 5% decomposition after 3 h incubation at 37° C.)”.
`COCCCOc1cc(C[C@@H](C[C@H]2[C@H](C[C@H](C(=O)NCC(C)(C)C(N)=O)C(C)C)OCN2C(=O)OCOC(=O)C2COCOC2)C(C)C)ccc1OC` [Example 32, [(1,3-dioxan-5-ylcarbonyl)oxy]methyl (4S,5S)-5-((2S)-2-{[(3-amino-2,2-dimethyl-3-oxopropyl)amino]carbonyl}-3-methylbutyl)-4-{(2S)-2-[4-methoxy-3-(3-methoxypropoxy)benzyl]-3-methylbutyl}-1,3-oxazolidine-3-carboxylate]: the “Chemical stability pH 2 (decomposition)” value in data set [3] is given as “A (Less than 5% decomposition after 3 h incubation at 37° C.)”. Also, the “Chemical stability pH 7.4 (decomposition)” value in data set [4] is “B (Less than 25% decomposition after 3 h incubation at 37° C.)”.
On the same counts, the results for `COCCCOc1cc(C[C@@H](C[C@H]2[C@H](C[C@H](C(=O)NCC(C)(C)C(N)=O)C(C)C)OCN2C(=O)OCOC(=O)OC2CCN(C)CC2)C(C)C)ccc1OC` [Example 35, ({[(1-methylpiperidin-4-yl)oxy]carbonyl}oxy)methyl (4S,5S)-5-((2S)-2-{[(3-amino-2,2-dimethyl-3-oxopropyl)amino]carbonyl}-3-methylbutyl)-4-{(2S)-2-[4-methoxy-3-(3-methoxypropoxy)benzyl]-3-methylbutyl}-1,3-oxazolidine-3-carboxylate] are “A (Less than 5% decomposition after 3 h incubation at 37° C.)” and “A (Less than 5% decomposition after 3 h incubation at 37° C.)”.
The matching figures for `COCCCOc1cc(C[C@@H](C[C@H]2[C@H](C[C@H](C(=O)NCC(C)(C)C(N)=O)C(C)C)OCN2C(=O)OCOC(=O)C2(N)CC2)C(C)C)ccc1OC.O=C(O)C(F)(F)F` [Example 43, {[(1-aminocyclopropyl)carbonyl]oxy}methyl (4S,5S)-5-((2S)-2-{[(3-amino-2,2-dimethyl-3-oxopropyl)amino]carbonyl}-3-methylbutyl)-4-{(2S)-2-[4-methoxy-3-(3-methoxypropoxy)benzyl]-3-methylbutyl}-1,3-oxazolidine-3-carboxylate, trifluoroacetate]: “A (Less than 5% decomposition after 3 h incubation at 37° C.)” and “B (Less than 25% decomposition after 3 h incubation at 37° C.)”.
The matching figures for `COCCCOc1cc(C[C@@H](C[C@H]2[C@H](C[C@H](C(=O)NCC(C)(C)C(N)=O)C(C)C)OCN2C(=O)OCOC(=O)c2cncn2C)C(C)C)ccc1OC` [Example 44, {[(1-methyl-1H-imidazol-5-yl)carbonyl]oxy}methyl (4S,5S)-5-((2S)-2-{[(3-amino-2,2-dimethyl-3-oxopropyl)amino]carbonyl}-3-methylbutyl)-4-{(2S)-2-[4-methoxy-3-(3-methoxypropoxy)benzyl]-3-methylbutyl}-1,3-oxazolidine-3-carboxylate]: “A (Less than 5% decomposition after 3 h incubation at 37° C.)” and “A (Less than 5% decomposition after 3 h incubation at 37° C.)”.
Take `COCCCOc1cc(C[C@@H](C[C@H]2[C@H](C[C@H](C(=O)NCC(C)(C)C(N)=O)C(C)C)OCN2C(=O)OCOC(=O)C2(CN)CC2)C(C)C)ccc1OC` [Example 53, {1-[({[((4S,5S)-5-((2S)-2-{[(3-amino-2,2-dimethyl-3-oxopropyl)amino]carbonyl}-3-methylbutyl)-4-{(2S)-2-[4-methoxy-3-(3-methoxypropoxy)benzyl]-3-methylbutyl}-1,3-oxazolidin-3-yl)carbonyl]oxy}methoxy)carbonyl]cyclopropyl}methanaminium trifluoroacetate]: the “Chemical stability pH 2 (decomposition)” value in data set [3] is recorded as “A (Less than 5% decomposition after 3 h incubation at 37° C.)”. Moreover, in data set [4], the “Chemical stability pH 7.4 (decomposition)” value was “C (Less than 50% decomposition after 3 h incubation at 37° C.)”.
